Data taken from US7754875B1, “Halide-free glucosamine base-organic acid salt compositions” (JFC Technologies, LLC, priority 2004, dated 2010).

What was measured:
[1] = Stability of sample in open dish exposed to the air at ambient temperature (color change); assay type: physicochemical
Procedure: (§1) 17.9 g of halide-free glucosamine base was mixed with 150 cc of purified water in a reaction vessel. After a clear solution was obtained, 16 g of α-hydroxy octanoic acid were slowly added, with stirring, to the glucosamine base solution. It was noted that the reaction was slightly exothermic since the temperature rose to 35° C. The reaction mixture was filtered and the water was removed by freeze-drying at a pressure of about 200 milliTorre and a temperature of about −45° C. 33 g of an off-white crystalline powder were obtained. The product was placed in a capped bottle that was placed in the refrigerator. […] A sample of the product was placed in an open dish exposed to the air at ambient temperature.
Example 1 was repeated using 300 cc of purified water to which 16.5 g of polyethylene glycol homopolymer had been added. 49 g (97.2% yield) of the white salt product were obtained. A sample of this product was placed in an open dish exposed to the air at ambient temperature.
A sample of the Example 3 product was placed in a dish exposed to the air at ambient temperature. […] A sample of the Example 4 product was placed in a dish exposed to the air at ambient temperature.

[2] = Stability of product kept in capped bottle in the refrigerator (color); assay type: physicochemical; conditions: six months
Procedure: as §1

**Q.** With `CCCCCCC(O)C(=O)O.NC1C(O)OC(CO)C(O)C1O` (stereo not drawn) [Example 1] as the molecule, how does the “color of sample after exposure to the air at ambient temperature” value ([1]; open dish, 3 days) read?
**A.** Its value is “developed a yellow color”.

**Q.** And the “color of product kept in the refrigerator” value [2]?
**A.** The value was “remained off-white in color”.

**Q.** For `N[C@H]1C(O)O[C@H](CO)[C@@H](O)[C@@H]1O.O=C(O)CC(O)(CC(=O)O)C(=O)O` [Example 3], which “color of sample after exposure to the air at ambient temperature” value ([1]; dish, 1 day) is on record?
**A.** Its value is “developed a yellow-orange color”.
